Entries after “also recorded” stand apart in the source; their conditions may differ.
Assays:
[1] = test system: Ctr1^−/− MEFs; assay: MTT cell viability, Ctr1-/- MEFs; assay type: cell-based, mouse
Protocol: (§1) A modified 3-(4,5-dimethylthiazol-2-yl)-2,5-diphenyltetrazolium bromide (MTT) assay (Mosmann, [1983]) was used to test the chemosensitivity of cells to phenanthriplatin and, in some experiments, to cisplatin by determining the glycolysis rate via the reduction of the yellow tetrazolium salt MTT to a purple formazan dye, as previously described (Wehe et al., [2014]). Briefly, after growing for 24 h in the incubator, cells expressing or not hOCT2, hMATE1, hMATE2 or Ctr1 were treated for 10 min with platinum derivatives. Control cells were incubated with drug-free complete cell culture medium. Afterwards, the medium was carefully removed and replaced by 200 μL of fresh complete cell culture medium. After incubation for another 24 h, 10 μL of MTT solution containing 5 mg/mL of the dye were added to each well, and the cells were again incubated for 3 h. The medium was then removed and 100 μL of lysis buffer containing 10% (w/v) sodium dodecyl sulfate and 40% (v/v) dimethylformamide was added to each well. The plates were shaken for 10 min to destroy the cell structure and dissolve the blue formazan dye (Furchert et al., [2007]; Wehe et al., [2014]). Finally, the absorbance was measured at 590 nm using an automated microtiter plate reader (Infinite M200; Tecan, Männedorf, Switzerland). The percentage of viable cells in the untreated controls was compared to that for the various treatments. Experiments carried out with DAOY and UW228 cells followed a similar protocol except that these cells were incubated for 24 h with phenanthriplatin.

[2] = biological target: T1, mOCT2 (Mus musculus, UniProt O70577); assay: Inhibition of ASP+ uptake in HEK 293 cells expressing mOCT2; assay type: cell-based, murine; conditions: HEK 293 mOCT2, 1 μM ASP+
T1 construct: expressed in transfected cells
T1 sequence (O70577 1-553): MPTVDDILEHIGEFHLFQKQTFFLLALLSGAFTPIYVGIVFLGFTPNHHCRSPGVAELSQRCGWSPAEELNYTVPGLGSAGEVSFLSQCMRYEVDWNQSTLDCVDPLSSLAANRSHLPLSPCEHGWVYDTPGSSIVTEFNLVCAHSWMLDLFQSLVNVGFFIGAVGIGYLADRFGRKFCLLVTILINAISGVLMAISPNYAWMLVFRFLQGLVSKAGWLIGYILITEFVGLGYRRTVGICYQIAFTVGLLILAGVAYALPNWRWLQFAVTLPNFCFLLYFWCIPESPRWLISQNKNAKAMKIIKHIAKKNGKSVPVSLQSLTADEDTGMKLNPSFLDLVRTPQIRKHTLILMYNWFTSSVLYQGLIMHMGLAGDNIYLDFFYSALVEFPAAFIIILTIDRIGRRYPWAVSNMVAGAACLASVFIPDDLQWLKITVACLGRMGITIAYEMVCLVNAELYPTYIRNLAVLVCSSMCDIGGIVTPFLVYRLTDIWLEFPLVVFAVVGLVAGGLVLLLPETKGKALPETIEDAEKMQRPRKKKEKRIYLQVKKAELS
Protocol: The interaction of phenanthriplatin with transporters for organic cations (OCT1-3, MATE1, and MATE2K) was investigated by measuring its effects on the uptake of the fluorescent organic cation 4-(4-dimethylamino)styryl-N-methylpyridinium (ASP^+). Microfluorometric measurements of ASP^+ uptake were performed with a fluorescence plate reader (Infinity 200, Tecan, Crailsheim, Germany; excitation at 465 nm, emission at 590 nm) as described previously for cultured HEK 293 cells (Wilde et al., [2009]). Before measurements, the culture medium in the wells of the 96 well microtiter plate containing HEK 293 cells was replaced by a HCO3- -free Ringer-like solution containing (in mM) NaCl 145, K2HPO4 1.6, KH2PO4 0.4, D-glucose 5, MgCl2 1, calcium gluconate 1.3, and pH adjusted to 7.4. Fluorescence was measured dynamically at 37°C in each well before and after ASP^+ addition to HCO3- -free Ringer-like solution, alone or together with increasing phenanthriplatin concentrations, and plotted versus time. ASP^+ (final concentration 1 or 10 μM for experiments with OCTs or MATEs, respectively) was added after the third sampling interval. Emission from the complete area of the well bottom was analyzed four times and averaged for each well. […] Background fluorescence was measured for each plate in wells with identical solutions containing no cells and subtracted from each well containing cells. […]

[3] = test system: HEK293 hMATE2K cells; assay: MTT cell viability, HEK293 hMATE2K cells; assay type: cell-based, human; conditions: 100 μM phenanthriplatin
Protocol: as §1, with “Experiments carried out with DAOY and UW228 cells followed a similar protocol except that these cells were incubated for 24 h with phenanthriplatin.” left out

[4] = test system: HEK 293 hOCT2 cells; assay: MTT cell viability, HEK 293 hOCT2 cells; assay type: cell-based, human; conditions: 10 min
Protocol: as §1

[5] = test system: HEK293 hMATE1 cells; assay: MTT cell viability, HEK293 hMATE1 cells; assay type: cell-based, human; conditions: HEK293 hMATE1, 100 μM phenanthriplatin
Protocol: as §1, with “Experiments carried out with DAOY and UW228 cells followed a similar protocol except that these cells were incubated for 24 h with phenanthriplatin.” left out

[6] = biological target: T2, hOCT2 (Homo sapiens, UniProt O15244); assay: Inhibition of ASP+ uptake in HEK 293 cells expressing hOCT2; assay type: cell-based; conditions: HEK 293 hOCT2, 1 μM ASP+
T2 construct: expressed in transfected cells; gift of H. Koepsell
T2 sequence (O15244 1-555): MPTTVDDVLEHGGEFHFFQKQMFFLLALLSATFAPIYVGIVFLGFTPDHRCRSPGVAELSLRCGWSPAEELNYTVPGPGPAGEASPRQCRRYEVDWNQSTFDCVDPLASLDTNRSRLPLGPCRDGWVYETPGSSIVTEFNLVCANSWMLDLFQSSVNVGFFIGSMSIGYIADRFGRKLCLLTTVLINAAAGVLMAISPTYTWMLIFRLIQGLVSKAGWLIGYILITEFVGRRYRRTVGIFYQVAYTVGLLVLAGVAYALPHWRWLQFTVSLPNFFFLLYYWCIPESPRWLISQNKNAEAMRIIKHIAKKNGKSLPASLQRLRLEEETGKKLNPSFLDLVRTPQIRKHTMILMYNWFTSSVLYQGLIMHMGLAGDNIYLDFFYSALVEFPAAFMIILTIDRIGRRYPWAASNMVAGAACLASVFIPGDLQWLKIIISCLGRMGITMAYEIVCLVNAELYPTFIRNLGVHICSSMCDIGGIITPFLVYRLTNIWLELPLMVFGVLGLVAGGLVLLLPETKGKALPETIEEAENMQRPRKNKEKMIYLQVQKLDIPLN
Protocol: The interaction of phenanthriplatin with transporters for organic cations (OCT1-3, MATE1, and MATE2K) was investigated by measuring its effects on the uptake of the fluorescent organic cation 4-(4-dimethylamino)styryl-N-methylpyridinium (ASP^+). Microfluorometric measurements of ASP^+ uptake were performed with a fluorescence plate reader (Infinity 200, Tecan, Crailsheim, Germany; excitation at 465 nm, emission at 590 nm) as described previously for cultured HEK 293 cells (Wilde et al., [2009]). Before measurements, the culture medium in the wells of the 96 well microtiter plate containing HEK 293 cells was replaced by a HCO3- -free Ringer-like solution containing (in mM) NaCl 145, K2HPO4 1.6, KH2PO4 0.4, D-glucose 5, MgCl2 1, calcium gluconate 1.3, and pH adjusted to 7.4. Fluorescence was measured dynamically at 37°C in each well before and after ASP^+ addition to HCO3- -free Ringer-like solution, alone or together with increasing phenanthriplatin concentrations, and plotted versus time. ASP^+ (final concentration 1 or 10 μM for experiments with OCTs or MATEs, respectively) was added after the third sampling interval. Emission from the complete area of the well bottom was analyzed four times and averaged for each well. […] Background fluorescence was measured for each plate in wells with identical solutions containing no cells and subtracted from each well containing cells. Experiments were performed with cells from one passage of the same day with controls and test replicates in the same plate.
(§2) Data are presented as mean values ± SEM, with (n) referring to the number of wells. IC50 values defined as the concentration of platinum agent required to inhibit uptake of ASP^+ by 50% and EC50 values used to assess cell viability were obtained by sigmoidal concentration-response curve fitting using GraphPad Prism, Version 5.3 (GraphPad Software, San Diego, USA). […] For multiple comparisons, ANOVA with Bonferroni post-test was used. A P-value < 0.05 was considered statistically significant.

[7] = test system: DAOY cells; assay: MTT cell viability, DAOY medulloblastoma cells; assay type: cell-based
Protocol: as §1, §2

IC50 [2]: 2000 nM | logIC50 (logEC50) ± SEM for inhibition of ASP+ uptake [2]: −5.64 ± 0.05 | IC50 [6]: 2000 nM | logIC50 (logEC50) ± SEM for inhibition of ASP+ uptake [6]: −5.67 ± 0.10 | EC50 ([7]; 24 h incubation, MTT): 900 nM
Structure (SMILES): N.N.[Cl][Pt+].c1ccc2c(c1)cnc1ccccc12 [phenanthriplatin, cis-[Pt(NH3)2Cl(phenanthridine)]^+]
Cell viability (MTT) ([1]; 1 mM, 10 min): toxic; also recorded: still present in Ctr1^−/− MEFs even though at lower level than in Ctr1^+/+ MEFs | Cell viability (MTT) ([1]; lower concentrations (<1 mM)): did not change the cell viability | Cell viability (MTT) [3]: induces significant cell toxicity | Cell viability (MTT) ([4]; HEK 293 hOCT2, 10 μM phenanthriplatin + 100 μM cimetidine): reduced upon co-incubation of phenanthriplatin with cimetidine | Cell viability (MTT) ([4]; HEK 293 hOCT2, 10 μM phenanthriplatin): significant phenanthriplatin toxicity | Cell viability (MTT) [5]: induces significant cell toxicity | Protection from phenanthriplatin toxicity by cimetidine (cell viability, MTT) ([7]; 24 h, 1 μM phenanthriplatin + 10-fold higher cimetidine): efficaciously protected against phenanthriplatin toxicity by cimetidine; also recorded: significantly decreased the toxicity of this compound in DAOY | logEC50 ± SEM for viability ([7]; 24 h incubation, MTT): −6.05 ± 0.02

From PMC5982655, “Interaction of the New Monofunctional Anticancer Agent Phenanthriplatin With Transporters for Organic Cations” (Frontiers in Chemistry, 2018)
